Assay results as given in patent publication US4271161A, “Indane-acetic acid aminoesters, their preparation and their use in therapy” (Hexachimie, priority 1978, dated 1981).

How the values were obtained:
[1] = test system: pain reactions (abdominal writhing) induced by phenylbenzoquinone; test: phenylbenzoquinone-induced writhing in mice (analgesic action); format: in vivo, male mice (SPF, strain OF1); conditions: for percentage inhibition of pain reactions (abdominal writhing): phenylbenzoquinone i.p. after one hour; for ED50: Mus musculus, po, inhibition of phenylbenzoquinone writhing
Procedure: The products being tested are administered orally (p.o.) to batches of 12 male mice (SPF, strain OF1), weighing 19-20 g. After one hour, 0.3 ml/mouse of a 0.02% strength solution of phenylbenzoquinone is injected intraperitoneally and the number of pain reactions (abdominal writhing) is counted from the 5th to the 10th minute after the latter treatment. The table below gives the percentage inhibition of these reactions.

[2] = test system: mice; test: toxicity: mortality after intraperitoneal administration in mice; format: in vivo
Excerpt: In mice, no mortality was observed after intraperitoneal administration up to doses of: […]

| Structure (SMILES) | percentage inhibition of pain reactions (abdominal writhing) ([1]; 8 mg.kg^-1 p.o.) | percentage inhibition of pain reactions (abdominal writhing) ([1]; 16 mg.kg^-1 p.o.) | percentage inhibition of pain reactions (abdominal writhing) ([1]; 32 mg.kg^-1 p.o.) | percentage inhibition of pain reactions (abdominal writhing) ([1]; 64 mg.kg^-1 p.o.) | percentage inhibition of pain reactions (abdominal writhing) ([1]; 128 mg.kg^-1 p.o.) | ED50 [1] | dose up to which no mortality was observed [2] | percentage inhibition of pain reactions (abdominal writhing) ([1]; 1 mg.kg^-1 p.o.) | percentage inhibition of pain reactions (abdominal writhing) ([1]; 2 mg.kg^-1 p.o.) | percentage inhibition of pain reactions (abdominal writhing) ([1]; 4 mg.kg^-1 p.o.) |
| --- | --- | --- | --- | --- | --- | --- | --- | --- | --- | --- |
| CC(C(=O)OCCN1CCN(c2cccc(C(F)(F)F)c2)CC1)c1ccc2c(c1)CC(C(C)C)C2 (stereo not drawn) [4 or 6] | 23% | 40% | 67% | 75% | 75% | 25 mg/kg | 256 mg/kg | – | – | – |
| CCC1Cc2ccc(C(C)C(=O)OCCN3CCN(c4cccc(C(F)(F)F)c4)CC3)cc2C1 (stereo not drawn) [2 or 5] | 64% | 65% | 82% | – | – | 4 mg/kg | 512 mg/kg | 22% | 47% | 59% |
